Values quoted from earlier work in patent publication US20070219271A1, “Pharmaceutical Compositions Containing Pufa And At Least One Of An Immunosuppressive Agent Or An Antineoplastic Agent” (Tillotts Pharma AG, priority 2004, published 2007).

System: human squamous carcinoma line and multidrug-resistant and carboplatin-resistant variants
Settings: cells pre-treated with GLA

CCCCC/C=C\C/C=C\C/C=C\CCCCC(=O)O [GLA, gamma-linoleic acid]
enhancement of vincristine toxicity: up to 40%
enhancement of toxicity of carboplatin (depending on the concentration of GLA, human squamous carcinoma and carboplatin-resistant variant cell lines): > 50%
